The source of these data is patent US20140065119A1, “METHODS AND COMPOSITIONS COMPRISING CYCLIC ANALOGUES OF HISTATIN 5 FOR TREATING WOUNDS” (THE UNIVERSITY OF WESTERN ONTARIO, priority 2010, published 2014).

Data set [1] is described as follows: Tolerability in mice, intra-peritoneal injection. In kind it is in vivo. On the procedure:
(§1) In addition, mice were able to withstand a concentration of 15 mg/kg of DB2121 when injected via an intra-peritoneal route. When injected into adult rats, a concentration of up to and including 1.5 mg/kg caused no harm when injected intra-venously.

Data set [2] in a line: Stability in human saliva in vitro by mass spectrometry. In kind it is in vitro ADME. The following applies: 1 uM, 37° C. How it is done:
DB2121 cyclic analogue was determined to be stable in vitro in human saliva for at least 72 hours as determined by mass spectrometry. The cyclic analogue was incubated in human saliva at a concentration of 1 uM and at a temperature of 37° C. in vitro. At various time points from 0 to 72 hours, 1.0 ul aliquots were taken and injected directly into a Micromass Quattro Micro mass spectrometer. Data was collected for a total of 3 minutes. The data was then processed using Mass Lynx 4.0 Analysis software.
The expected average mass of the cyclic histatin analogue in its active form is expected to be 2557.93. […] The peaks within an acceptable error of approximately 1 mass unit corresponding to cyclic histatin analogue were 2556.95 at 0 hours, 2557.65 at 24 hours, and 2557.10 at 72 hours incubation.

Another data set concerns phosphorylated ERK 1, 2. As to the kind of experiment: Western blot for phosphorylated ERK 1, 2 in primary cells. It counts as cell-based, human. The following applies: 50 μM, primary cell lysates. On the procedure:
(§2) Toxicological studies of DB2121 in human cells were also undertaken. Primary human neonatal foreskin epithelial cells were used to examine DB2121 toxicity, using a method as described in Min et al. 2004. Nat Biotechnol 22:717-23, the contents of which are incorporated herein by reference. Briefly, when the cells were in log phase, (A) 50 μM DB2121, B) 50 μM Histatin H5, (C) 50 μM ketoconazole, or (D) DMSO was added to the culture medium. At 18 and 36 hours following addition of compound, the foreskin epithelial cells were imaged using phase contract microscopy at 20× magnification. Immediately following the image analysis, proteins were extracted, separated on SDS-PAGE gels, Western blotted, and probed for phosphorylated and non-phosphorylated ERK 1, 2 to monitor cell spreading/migration and/or proliferation of the foreskin keratinocytes. The experiments was repeated three times.
It was then investigated whether or not these phenotypes were reflected at the molecular level. The primary cells were lysed and monitored for a marker of proliferation namely, phosphorylated ERK 1, 2.
Background: Immunoblotting shows a protein as a band on a membrane.

Data set [3] has as its system primary human foreskin epithelial cell culture. Briefly: Viable cell number (trypan exclusion) in primary cell culture. The following applies: various concentrations, 0, 36 and 72 hours; vs 50 μM ketoconazole; FIG. 3. It counts as cell-based. How it is done:
To determine range of non-toxic concentrations of DB2121, various concentrations of DB2121, 50 μM ketoconazole or DMSO as a control were separately added to primary human foreskin epithelial cell culture. At 0, 36 and 72 hours after addition, the epithelial cells were titrated off the culture plate and the viable cell number was determined. The experiment was performed in triplicate. At 72 hours, the foreskin epithelial cells exposed to the various compounds were imaged at 20× magnification using phase contrast microscopy. For cell counting, the epithelial cells were stained with trypan exclusion stain to monitor cell viability.

For data set [4], the system named is Primary human neonatal foreskin epithelial cells. As to the kind of experiment: Toxicity in primary cells, phase contrast morphology. It counts as cell-based. How it is done: as §2
Data set [5] in a line: Tolerability in adult rats, intra-venous injection. It counts as in vivo. How it is done:
as §1

The structures appear in SMILES notation. Positions of bridges follow the written chain, without caps; N, C: chain ends. Residues, ends and D or L forms follow the SMILES beside them.

In the case of `N=C(N)NCCC[C@H](NC(=O)[C@H](Cc1c[nH]cn1)NC(=O)[C@@H]1CSSC[C@H](NC(=O)[C@H](Cc2c[nH]cn2)NC(=O)[C@H](Cc2c[nH]cn2)NC(=O)[C@@H](N)CCCNC(=N)N)C(=O)N[C@@H](Cc2ccc(O)cc2)C(=O)N[C@@H](CCCCN)C(=O)N[C@@H](CCCNC(=N)N)C(=O)N[C@@H](CCCCN)C(=O)N[C@@H](Cc2ccccc2)C(=O)N[C@@H](Cc2c[nH]cn2)C(=O)N[C@@H](CCC(=O)O)C(=O)N[C@@H](CCCCN)C(=O)N[C@@H](Cc2c[nH]cn2)C(=O)N[C@@H](Cc2c[nH]cn2)C(=O)N1)C(=O)NCC(=O)N[C@@H](Cc1ccc(O)cc1)C(=O)O` [DB2121, N-RHHCYKRKFHEKHHCHRGY-C] (H-RHHCYKRKFHEKHHCHRGY-OH; disulfide 4-15; N-terminus and C-terminus assumed), in data set [1], the “concentration (dose) mice were able to withstand” value is reported as 15 mg/kg. Also, the “time stable in human saliva” value in data set [2] was “at least 72 hours”. Also, the “ERK 1, 2 activation (phosphorylated ERK 1, 2) vs control” value in the data set with phosphorylated ERK 1, 2 is listed as “not suppressed”. For the same compound, the “toxicity in primary cultured cells (viable cell number)” value in data set [3] is “minimal toxicity”. Moreover, the “toxicity to human primary cells” value in data set [4] (working concentrations of 50 μM, conclusion from morphology and ERK studies) is listed as “non-toxic”. In addition, the “concentration (dose) that caused no harm” value in data set [5] is listed as not above 1.5 mg/kg.
For `CC(=O)N1CCN(c2ccc(OCC3COC(Cn4ccnc4)(c4ccc(Cl)cc4Cl)O3)cc2)CC1` (centres unmarked) [ketoconazole, Ketoconazole, reference compound], in the data set on phosphorylated ERK 1, 2, the “ERK 1, 2 activation (phosphorylated ERK 1, 2) vs control” value is on record as “Significant inhibition of ERK 1, 2 activation”. Besides, the cell morphology result in data set [4] (50 μM, 18 and 36 hours, phase contrast 20×) is listed as “morphologically normal except when treated with ketoconazole”.
